Test results published in patent publication US11035008B2, “Biomarkers for cancer” (BERGENBIO ASA, priority 2015, dated 2021).

Tests used:
pAxl (Y779) = assay: pAxl(Y779) in AML cell panel, short term treatment, flow cytometry; assay type: cell-based, human; settings: 1 hour
Experimental: (§1) Staining of Cells for Flow Cytometry, General Protocol: • Live cells were centrifuged at 300 G for 5 minutes, washed once with PBS and centrifuged again. Cells were then fixed in 4% PFA in PBS for 10 minutes at 37° C., and resuspended in PBS. Unless processed immediately, samples were at this point stored in PBS at 4° C. (up to three weeks) or at −80° C. (for long-term storage). If intracellular epitopes were stained, cells were permebealized in 90% MeOH for 30 minutes on ice. Unless processed immediately, samples were also be stored in 90% MeOH at −20° C. for up to two months. • Further staining procedure (permebealized or non-permebealized cells): • Cells were washed 1× in PBS and blocked in blocking buffer; either PBS+0.5% BSA or PBS+1:1000 Octagam (5 mg/ml) for 15 minutes at room temperature. Thereafter, cells were incubated with primary AB at the indicated dilutions in incubation buffer (IB, PBS+0.5% BSA) for 1 hour at room temperature. Cells were then washed 3× with IB and incubated with secondary AB (conjugated to a fluorescent flurophore) at 1:1000 dilution in IB for 30 minutes at room temperature. Finally, cells were washed 3× in IB and resuspended in PBS. Cells were analyzed immediately, or stored for up to 24 hours at 4° C. before analysis. • Analysis of cells was done on a BD LSR Fortessa or a BD C6 Accuri flow cytometer, and further processing was done using FlowJo v.7.6. • All incubation steps (but not storage) were done on a spinning wheel or gentle shaker.
(§2) The diversity of AML cells and their responses was investigated using a panel of AML cell lines and assessing their responses after BGB324-treatment.
(§3) When investigating phospho-markers, the cells were starved overnight in the appropriate growth medium containing 0.1% FBS, pre-treated with BGB324 at 0.5 and 1 μM for one hour, and stimulated with 10% FBS for 20 minutes (to induce phosphorylation, with BGB324 present). Cells were then fixed and stained for flow cytometric analyses.

Akt(S473) = assay: pAkt(S473) in blood of healthy volunteers treated ex vivo; assay type: cell-based, human; settings: blood of two healthy volunteers, 1 μM, 30 minutes ex vivo; signal very low, disregarded as false
Experimental: Staining of Blood for Flow Cytometry, General Protocol: • Human blood from healthy donors was collected in the presence of sodium citrate and mixed with 20 volumes of pre-warmed BD phosflow lyse/fix buffer (diluted to 1× in destilled water), followed by incubation in 37° C. water bath for 10 minutes. Cells were spun at 500 g for 8 minutes and washed once with PBS. • Cells were permebilized by adding 70% MeOH followed by 30 min incubation on ice. Unless processed immediately, samples were at this point stored in MeOH at −20° C. for up to 4 weeks. • Staining of permeabilized cells: • Cells were spun at 600 g, washed twice and resuspended in IB. Cells were aliquoted into volums corresponding to 100 ul collected blood (before dilution), and stained as described above (section two in “Staining of cells for flow cytometry, general protocol”). • All washing and incubation steps were done on a spinning wheel or gentle shaker.
Blood samples from BGB324-treated individuals were not available, so BGB324-treatment was simulated by incubating fresh unfixed blood samples with 1 μM BGB324 for 30 minutes before fixation. Thereafter, samples were fixed, permebealized, and stained for flow with pAxl and pAkt antibodies to examine whether we could see a response to BGB324-treatment in these biomarkers (see FIG. 7). Phosphatase-treated cells were included as a negative staining control.

totPHGDH = assay: Total PHGDH in AML cell panel, long-term treatment, flow cytometry; assay type: cell-based, human
Experimental: as §1, §2
Long-term treatment was done in complete medium, without starvation. The responders were treated with 0.05, 0.1 or 0.3 μM BGB324, whereas the non-responders were treated with only a single dose of 2.5 μM BGB324. The cells were fixed after 24, 48 or 72 hours, and the samples were stored in 90% MeOH at −20° C. until all samples were harvested, and stained for flow at the same time.

PHGDH [1] = assay: PHGDH by western blot in MOLM13 cells treated in vitro; assay type: cell-based, human
Experimental: (§4) Western Blot, General Protocol: • For western blot analysis, cells were lysed on ice using NP-40 lysis buffer with protease- and phosphatase inhibitors. Total protein concentration in lysates was measured using a BCA protein assay kit following the manufacturers instructions. 10% NuPAGE® Bis-Tris precast gels were loaded with 30-50 μg of protein in each well diluted in sample buffer and antioxidant. A 1:1 mix of MagicMark™ XP Western Protein Standard (Invitrogen) and SeeBlue® Plus 2 Pre-Stained Standard was used as protein standard. Gels were run at 50V for 20 min, then at 100V for 1 h 30 min. Blotting was done on ice for 1 h 30 min at 100V onto PVDF (pre-activated with MeOH) or nitrocellulose membranes. Membranes were washed in TBS-0.1% Tween-20 (TBS-T), and blocked in TBS-T 5% BSA for at least 1 h at RT. Primary ABs were added at 1:1000 in TBS-T 5% BSA (rabbit-anti-actin AB was added at 1:2000) in TBS-T 5% BSA, and membranes were incubated over night at 4° C. Membranes were then washed 3× in TBS-T, and incubated in HRP-conjugated secondary ABs at 1:5000 dilution in TBS-T 5% milk for 45 min at RT. Membranes were developed for 1 min using ECL-reagents and imaged with chemiluminescence using a Molecular Imager ChemiDoc™ XRS (BioRad). • All incubation- and washing steps were done on a roller.

Mv4-11 cells = assay: IC50 of BGB324 by resazurin assay, Mv4-11; assay type: cell-based; settings: Homo sapiens, Mv4-11 (responder)
From the text: as §2

pPLCγ1 = pPLCγ1 in AML cell panel, short term treatment, flow cytometry; assay type: cell-based, human
Experimental: as §1, §2, §3

PHGDH [2] = assay: PHGDH by western blot in Mv4-11 subcutaneous xenograft tumours; assay type: in vivo, mice; settings: for PHGDH in tumour lysates (western blot): Mv4-11 sub-q
Experimental: as §4
To validate the reduction of PHGDH in in vivo samples found by microarray, the PHGDH expression in tumour material from in vivo samples was investigated by western blot. […] Therefore, it was investigated at what time point PHGDH is reduced after treatment with a single high dose of BGB324 100 mg/kg.
Tumours where the mice had been treated with a single lower dose of BGB324, 50 mg/kg, were also examined (tumour material was harvested at different time points, from 4-72 hours).

## Nc1nc(Nc2ccc3c(c2)CC[C@@H](N2CCCC2)CC3)nn1-c1cc2c(nn1)-c1ccccc1CCC2 [BGB324, 1-(6,7-dihydro-5H-benzo[6,7]cyclohepta[1,2-c]pyridazin-3-yl)-N3-((7-(S)-pyrrolidin-1-yl)-6,7,8,9-tetrahydro-5H-benzo[7]annulene-2-yl)-1H-1,2,4-triazole-3,5-diamine]
pAxl (Y779); Kasumi, 0.5 and 1 μM
  pAxl: no response to treatment
pAxl (Y779); MOLM13, 0.5 and 1 μM
  phosphorylation of Axl at Y779: significantly reduced
pAxl (Y779); Mv4-11, 0.5 and 1 μM
  phosphorylation of Axl at Y779: significantly reduced
pAxl (Y779); OCI-M1, highest treatment dose
  pAxl: slight (but significant) reduction of pAxl
Akt(S473)
  pAkt: very slight reduction in pAkt
totPHGDH; Kasumi, 2.5 μM, significant at 24 hours
  PHGDH expression: increase in PHGDH expression
totPHGDH; MOLM13, 24, 48 and 72 hours
  total protein expression of PHGDH: no significant changes
totPHGDH; Mv4-11, 0.3 uM, 24 and 72 hours
  total protein expression of PHGDH: significant reduction of PHGDH
totPHGDH; OCI-AML5, 2.5 μM, significant in all time points
  PHGDH expression: increase in PHGDH expression
PHGDH [1]; 2 uM, time-course of 3-7 hours
  PHGDH by western blot: did not see reduction of PHGDH
PHGDH [1]; 0.3 and 0.6 uM, three days
  PHGDH by western blot: did not see reduction of PHGDH
Mv4-11 cells
  IC50: 0.14 µM
pPLCγ1; Kasumi, 1 hour
  pPLCγ: No response in PLCγ
pPLCγ1; MOLM13, all treatment doses, 1 hour
  pPLCγ: significantly reduced
pPLCγ1; Mv4-11, all treatment doses, 1 hour
  pPLCγ: significantly reduced
pPLCγ1; OCI-M1, 1 hour
  pPLCγ: No response in PLCγ
PHGDH [2]; Mv4-11, single dose 50 mg/kg, harvested 4-72 hours
  PHGDH in tumours (western blot): stable reduction of PHGDH was observed from 16 hours and onwards
PHGDH [2]; Mv4-11, single dose 100 mg/kg, 6 hours after treatment
  PHGDH in tumours (western blot): not 6 hours after treatment
PHGDH [2]; Mv4-11, single dose 100 mg/kg, 8 hours after treatment
  PHGDH in tumours (western blot): reduction of PHGDH observed in three parallel tumours
PHGDH [2]; 25 mg/kg BID, 50 mg/kg BID or 50 mg/kg QD, 15 days
  PHGDH in tumour lysates (western blot): reduction of PHGDH was observed in most of the tumours
PHGDH [2]; 100 mg/kg single dose, tumours harvested 6 h after dosing
  PHGDH in tumour lysates (western blot): only in one of two tumours
